This is an account of results in publication PMC2375871, “Regulation of 5'-adenosine monophosphate deaminase in the freeze tolerant wood frog, Rana sylvatica” (BMC Biochemistry, 2008).

What all share (assay type): biochemical, Lithobates sylvaticus
The test system of assay [1] is T1, Bound AMPD (wood frog skeletal muscle, frozen frogs).
T1 construct: gene AMPD1; high phosphate form (sites not known); not purified
The experiment in a line: AMP deaminase activity, glutamate dehydrogenase-coupled, NADH […] nm, Hill fit. Particulars: Hill coefficient 1.12, pH 7.2, 25°C, no glucose, bound enzyme, read-out: S0.5 AMP.

The subject of assay [2] is T2, Free AMPD (wood frog skeletal muscle, control frogs).
T2 construct: gene AMPD1; native, soluble (free) form in skeletal muscle extract of 5°C-acclimated control frogs, Sephadex G-50 desalted, not purified
Briefly: AMP deaminase activity, […] nm absorbance, Hill fit. Particulars: after Sephadex G-50 desalting, Hill coefficient 2.37, pH 7.2, 25°C, read-out: After spun columns.

Assay [3] relates to T3, Bound AMPD (wood frog skeletal muscle, control frogs).
T3 construct: gene AMPD1; low phosphate form; not purified
The experiment in a line: AMP deaminase activity, glutamate dehydrogenase-coupled, NADH […] nm, Hill fit. Particulars: Hill coefficient 1.03, pH 7.2, 25°C, no glucose, bound enzyme, read-out: S0.5 AMP.

Assay [4] has as its target T2, Free AMPD (wood frog skeletal muscle, control frogs). Briefly: AMP deaminase activity, […] nm absorbance. Particulars: 0.5 mM AMP, pH 7.2, 25°C, allosteric.
Assay [5] concerns the target T1, Bound AMPD (wood frog skeletal muscle, frozen frogs). Briefly: AMP deaminase activity, glutamate dehydrogenase-coupled, NADH […] nm. Particulars: activation constant (half-maximal activation, 3.42-fold), as Mg·ADP, 0.5 mM AMP, pH 7.2, 25°C, bound enzyme, allosteric.
Assay [6] deals with T3, Bound AMPD (wood frog skeletal muscle, control frogs). The description is as above. Particulars: activation constant (half-maximal activation, 1.25-fold), as Mg·ADP, 0.5 mM AMP, pH 7.2, 25°C, bound enzyme, allosteric.
Assay [7] shares this target. The description is as above. Particulars: as Mg·GTP, 0.5 mM AMP, pH 7.2, 25°C, bound enzyme, allosteric.
In assay [8] the target is T1, Bound AMPD (wood frog skeletal muscle, frozen frogs). The assay is described as above. Particulars: as Mg·GTP, 0.5 mM AMP, pH 7.2, 25°C, bound enzyme, allosteric.
Assay [9] addresses T2, Free AMPD (wood frog skeletal muscle, control frogs). Briefly: AMP deaminase activity, […] nm absorbance. Particulars: as Mg·GTP, 0.5 mM AMP, pH 7.2, 25°C, allosteric.

Turning to `Nc1ncnc2c1ncn2[C@@H]1O[C@H](COP(=O)(O)O)[C@@H](O)[C@H]1O` [AMP], the Km was determined as 1500 ± 190 µM in assay [1], 1350 ± 80 µM in assay [2] and 460 ± 30 µM in [3].

As for `Nc1ncnc2c1ncn2[C@@H]1O[C@H](COP(=O)(O)OP(=O)(O)O)[C@@H](O)[C@H]1O` [Mg·ADP], the EC50 was found to be 1120 ± 150 µM in [4] (activation constant (half-maximal activation, 2.17-fold), as Mg·ADP); 1140 ± 100 µM in assay [5]; 3750 ± 370 µM in assay [6].

Take `Nc1ncnc2c1ncn2[C@@H]1O[C@H](COP(=O)(O)OP(=O)(O)OP(=O)(O)O)[C@@H](O)[C@H]1O` [Mg·ATP]: the midpoint of the response in assay [4] (activation constant (half-maximal activation, 1.53-fold), as Mg·ATP), the EC50, lay at 1900 ± 30 µM.

In the case of `Nc1nc2c(ncn2[C@@H]2O[C@H](COP(=O)(O)OP(=O)(O)OP(=O)(O)O)[C@@H](O)[C@H]2O)c(=O)[nH]1` [Mg·GTP], the results for the IC50 in assay [7], in assay [8] and in assay [9] were 80 ± 10 µM, 100 ± 10 µM and 150 ± 20 µM, respectively.
